Earlier results in Sander's compilation of Henry's law constants.
Values joined by “and” are separate entries in the source; they are usually repeats but may differ in a detail not shown here. Identical values can stand only once.

Test: Henry solubility constant Hcp at 298.15 K (mol/(m3 Pa))
Settings: cited value
[1] = reference: Mackay et al. (1992b)
[2] = reference: Barcelo and Hennion (1997)
[3] = reference: Burkholder et al. (2015)
[4] = reference: Burkholder et al. (2019)
[5] = reference: Fogg and Sangster (2003)
[6] = reference: Sander et al. (2006)
[7] = reference: Sander et al. (2011)

## c1ccc(Cc2ccccc2)cc1 [diphenylmethane]
[1]
  Henry solubility constant Hcp: 1

## COC(=O)c1ccccc1 [methyl benzoate]
reference: Brockbank (2013)
  Henry solubility constant Hcp: 0.29

## Brc1ccc(Oc2ccc(Br)cc2Br)cc1 [2,4,4'-tribromodiphenyl ether]
reference: Wania and Dugani (2003)
  Henry solubility constant Hcp: 0.52

## C#CCCCCCCC [1-nonyne]
reference: Brockbank (2013)
  Henry solubility constant Hcp: 8.5e-05

## Cc1ccc(Cl)cc1 [1-chloro-4-methylbenzene]
reference: Brockbank (2013)
  Henry solubility constant Hcp: 0.0027

## C=CC1(C)OC(=O)N(c2cc(Cl)cc(Cl)c2)C1=O (stereo not given) [vinclozoline]
[2]
  Henry solubility constant Hcp: 7.6

## CC(C)N1C(=O)c2ccccc2NS1(=O)=O [bentazone]
[2]
  Henry solubility constant Hcp: 130

## [O-]O [hydroperoxy radical]
reference: Régimbal and Mozurkewich (1997)
  Henry solubility constant Hcp: 57

## CC(C)C(C)C(C)C [2,3,4-trimethylpentane]
reference: Brockbank (2013)
  Henry solubility constant Hcp: 3.3e-06

## CC(=O)OC(C)C [2-propyl ethanoate]
reference: Brockbank (2013)
  Henry solubility constant Hcp: 0.033

## CC(Cl)(Cl)Cl [1,1,1-trichloroethane]
reference: Barr and Newsham (1987)
  Henry solubility constant Hcp: 0.00058
reference: Brockbank (2013)
  Henry solubility constant Hcp: 0.00058
[3]
  Henry solubility constant Hcp: 0.0006
[4]
  Henry solubility constant Hcp: 0.0006
[5]
  Henry solubility constant Hcp: 0.00062
reference: Goldstein (1982)
  Henry solubility constant Hcp: 0.0022

## CCCCCCOC(=O)c1ccccc1C(=O)OCCCCCC [dihexyl phthalate]
reference: Brockbank (2013)
  Henry solubility constant Hcp: 8.3

## CCCCCCCN [1-heptanamine]
reference: Brockbank (2013)
  Henry solubility constant Hcp: 0.28

## c1ccc2c(c1)oc1ccccc12 [dibenzofuran]
reference: Brockbank (2013)
  Henry solubility constant Hcp: 0.074
[1]
  Henry solubility constant Hcp: 0.091

## ClC1=C(Cl)[C@]2(Cl)[C@H]3[C@H]([C@@H]4C=C[C@H]3C4)[C@@]1(Cl)C2(Cl)Cl [aldrin]
[2]
  Henry solubility constant Hcp: 0.00011
reference: Meylan and Howard (1991)
  Henry solubility constant Hcp: 0.02

## C#CCC [1-butyne]
reference: Brockbank (2013)
  Henry solubility constant Hcp: 0.00056

## O=C(NC(=O)c1c(F)cccc1F)Nc1ccc(Cl)cc1 [diflubenzuron]
[2]
  Henry solubility constant Hcp: 21

## Cc1ccc(C)c(O)c1 [1-hydroxy-2,5-dimethylbenzene]
reference: Brockbank (2013)
  Henry solubility constant Hcp: 8.2

## CC(=O)OC1CCCCC1 [cyclohexyl ethanoate]
reference: Brockbank (2013)
  Henry solubility constant Hcp: 0.1

## CC(C)CCC(C)C [2,5-dimethylhexane]
reference: Brockbank (2013)
  Henry solubility constant Hcp: 3.1e-06

## CCCCCCCC(C)O (stereo not given) [2-nonanol]
reference: Brockbank (2013)
  Henry solubility constant Hcp: 0.21

## CCCN(CCC)N=O [N-nitrosodipropylamine]
reference: Mackay et al. (1995)
  Henry solubility constant Hcp: 1.6

## CC(C)CCC(C)(C)C [2,2,5-trimethylhexane]
reference: Brockbank (2013)
  Henry solubility constant Hcp: 1.9e-06

## O=NCl [nitrosyl chloride]
[3]
  Henry solubility constant Hcp: > 0.00049
[4]
  Henry solubility constant Hcp: > 0.00049

## CC1(C(=O)Nc2ccc(O)c(Cl)c2Cl)CCCCC1 [fenhexamid]
reference: MacBean (2012b)
  Henry solubility constant Hcp: 200000

## C=C [ethene]
[3]
  Henry solubility constant Hcp: 5.9e-05
[4]
  Henry solubility constant Hcp: 5.9e-05
reference: Deno and Berkheimer (1960)
  Henry solubility constant Hcp: 4.7e-05
reference: Hayduk (1994)
  Henry solubility constant Hcp: 4.7e-05
[6]
  Henry solubility constant Hcp: 5.9e-05
[7]
  Henry solubility constant Hcp: 5.9e-05

## CCCCCCCC [octane]
reference: Brockbank (2013)
  Henry solubility constant Hcp: 3.4e-06

## c1ccc2c(c1)Cc1ccccc1-2 [2,3-benzindene]
reference: Brockbank (2013)
  Henry solubility constant Hcp: 0.13
[5]
  Henry solubility constant Hcp: 0.11
reference: Goldstein (1982)
  Henry solubility constant Hcp: 0.084
reference: HSDB (2015)
  Henry solubility constant Hcp: 0.099
reference: McCarty (1980)
  Henry solubility constant Hcp: 0.047

## [Ne] [neon]
reference: Clever (1979a)
  Henry solubility constant Hcp: 4.5e-06

## C1=C\CCCCCC/1 [cyclooctene]
reference: Brockbank (2013)
  Henry solubility constant Hcp: 0.00021

## BrC(Br)Br [tribromomethane]
reference: Brockbank (2013)
  Henry solubility constant Hcp: 0.018
[3]
  Henry solubility constant Hcp: 0.017
[4]
  Henry solubility constant Hcp: 0.017
reference: Goldstein (1982)
  Henry solubility constant Hcp: 0.018
reference: Nicholson et al. (1984)
  Henry solubility constant Hcp: 0.017
[6]
  Henry solubility constant Hcp: 0.017
[7]
  Henry solubility constant Hcp: 0.017

## Clc1ccc(Cl)cc1 [1,4-dichlorobenzene]
reference: Brockbank (2013)
  Henry solubility constant Hcp: 0.0038
[5]
  Henry solubility constant Hcp: 0.0045
reference: Goldstein (1982)
  Henry solubility constant Hcp: 0.0037

## c1ccc2cc3ccccc3cc2c1 [anthracene]
reference: Brockbank (2013)
  Henry solubility constant Hcp: 0.33
[5]
  Henry solubility constant Hcp: 0.17
reference: Goldstein (1982)
  Henry solubility constant Hcp: 0.35
reference: McCarty (1980)
  Henry solubility constant Hcp: 0.007
reference: Smith et al. (1981a)
  Henry solubility constant Hcp: 0.1

## CNC [dimethylamine]
reference: Brockbank (2013)
  Henry solubility constant Hcp: 0.62
[3]
  Henry solubility constant Hcp: 0.55
[4]
  Henry solubility constant Hcp: 0.55

## NC1CCCCC1 [cyclohexanamine]
reference: Brockbank (2013)
  Henry solubility constant Hcp: 2.2

## Cc1ccccn1 [2-methylpyridine]
reference: Brockbank (2013)
  Henry solubility constant Hcp: 0.98

## Cc1ccccc1C [1,2-dimethylbenzene]
reference: Brockbank (2013)
  Henry solubility constant Hcp: 0.002
[5]
  Henry solubility constant Hcp: 0.0024

## CCC[N+](=O)[O-] [1-nitropropane]
reference: Brockbank (2013)
  Henry solubility constant Hcp: 0.14
[3]
  Henry solubility constant Hcp: 0.13
[4]
  Henry solubility constant Hcp: 0.13
[6]
  Henry solubility constant Hcp: 0.13
[7]
  Henry solubility constant Hcp: 0.13

## CC(=O)C(=O)O [2-oxopropanoic acid]
[3]
  Henry solubility constant Hcp: 3100
[4]
  Henry solubility constant Hcp: 3100
[6]
  Henry solubility constant Hcp: 3100
[7]
  Henry solubility constant Hcp: 3100

## O=COCc1ccccc1 [benzyl methanoate]
reference: Brockbank (2013)
  Henry solubility constant Hcp: 2

## BrCBr [dibromomethane]
reference: Brockbank (2013)
  Henry solubility constant Hcp: 0.012
[4]
  Henry solubility constant Hcp: 0.012

## C=CCO [2-propen-1-ol]
reference: Goldstein (1982)
  Henry solubility constant Hcp: 4.3
reference: Pierotti et al. (1959)
  Henry solubility constant Hcp: 2

## CC(C)C(=O)C(C)C [2,4-dimethyl-3-pentanone]
reference: Brockbank (2013)
  Henry solubility constant Hcp: 0.023

## OCC(F)F [2,2-difluoroethanol]
[3]
  Henry solubility constant Hcp: 0.93
[4]
  Henry solubility constant Hcp: 0.93

## Nc1ccccc1[N+](=O)[O-] [2-nitrobenzenamine]
reference: Brockbank (2013)
  Henry solubility constant Hcp: 71

## OCC(F)(F)C(F)(F)F [2,2,3,3,3-pentafluoro-1-propanol]
[3]
  Henry solubility constant Hcp: 0.14
[4]
  Henry solubility constant Hcp: 0.14
[7]
  Henry solubility constant Hcp: 0.14

## CCNC(=O)[C@@H](C)OC(=O)Nc1ccccc1 [carbetamide]
[2]
  Henry solubility constant Hcp: 1.1

## ClCCCCl [1,3-dichloropropane]
reference: Brockbank (2013)
  Henry solubility constant Hcp: 0.012
[3]
  Henry solubility constant Hcp: 0.01
[4]
  Henry solubility constant Hcp: 0.01

## O=C(O)C(Br)Br [dibromoethanoic acid]
[3]
  Henry solubility constant Hcp: 2300
[4]
  Henry solubility constant Hcp: 2300
[7]
  Henry solubility constant Hcp: 2300

## CCOC1Oc2ccc(OS(C)(=O)=O)cc2C1(C)C (stereo not given) [ethofumesate]
[2]
  Henry solubility constant Hcp: 45

## ClC=C(Cl)Cl [trichloroethene]
reference: Brockbank (2013)
  Henry solubility constant Hcp: 0.001
[3]
  Henry solubility constant Hcp: 0.0011
[4]
  Henry solubility constant Hcp: 0.0011
[5]
  Henry solubility constant Hcp: 0.001
reference: Goldstein (1982)
  Henry solubility constant Hcp: 0.00088

## CCOP(=S)(OCC)Oc1cc(C)nc(C(C)C)n1 [diazinon]
[2]
  Henry solubility constant Hcp: 0.15
reference: Muir et al. (2004)
  Henry solubility constant Hcp: 46 and 92

## COP(=O)(OC)C(O)C(Cl)(Cl)Cl (stereo not given)
[2]
  Henry solubility constant Hcp: 5800

## Nc1ccc([N+](=O)[O-])cc1 [4-nitrobenzenamine]
reference: Brockbank (2013)
  Henry solubility constant Hcp: 8700

## [Hg+2].[OH-].[OH-] [mercury dihydroxide]
reference: Lindqvist and Rodhe (1985)
  Henry solubility constant Hcp: 130
reference: WHO (1990)
  Henry solubility constant Hcp: 130

## O=C=S [carbon oxide sulfide]
[3]
  Henry solubility constant Hcp: 0.0002
[4]
  Henry solubility constant Hcp: 0.0002
[6]
  Henry solubility constant Hcp: 0.0002
[7]
  Henry solubility constant Hcp: 0.0002

## CC(C)SC(C)C [di-(2-propyl)-sulfide]
reference: Brockbank (2013)
  Henry solubility constant Hcp: 0.0028

## O=S=O [sulfur dioxide]
reference: Beilke and Gravenhorst (1978)
  Henry solubility constant Hcp: 0.012
[3]
  Henry solubility constant Hcp: 0.013
[4]
  Henry solubility constant Hcp: 0.013
reference: Edwards et al. (1978)
  Henry solubility constant Hcp: 0.012
reference: Maahs (1982)
  Henry solubility constant Hcp: 0.012
reference: Pandis and Seinfeld (1989)
  Henry solubility constant Hcp: 0.012
reference: Rodríguez-Sevilla et al. (2001)
  Henry solubility constant Hcp: 0.012
[6]
  Henry solubility constant Hcp: 0.013
[7]
  Henry solubility constant Hcp: 0.013
reference: Yoo et al. (1986)
  Henry solubility constant Hcp: 0.012
reference: Young (1983)
  Henry solubility constant Hcp: 0.013
